Source: article PMC11952846, “The sterol-regulating human ARV1 binds cholesterol and phospholipids through its conserved ARV1 homology domain” (The Journal of Biological Chemistry, 2025)
Where a chain is given by its changes, count along the chain named. Values belong to the compound of their own block, whether it stands above or below them.

Legend:
[1] = molecular target: T1, GST-ARV1 (full-length ARV1) (Homo sapiens, UniProt Q9H2C2); assay: Lipid overlay far western; type: binding
T1 construct: Expresses full length ARV1; made in house; host or cells: E. coli BL21 (pGEX-4T1)
T1 sequence (Q9H2C2 1-271): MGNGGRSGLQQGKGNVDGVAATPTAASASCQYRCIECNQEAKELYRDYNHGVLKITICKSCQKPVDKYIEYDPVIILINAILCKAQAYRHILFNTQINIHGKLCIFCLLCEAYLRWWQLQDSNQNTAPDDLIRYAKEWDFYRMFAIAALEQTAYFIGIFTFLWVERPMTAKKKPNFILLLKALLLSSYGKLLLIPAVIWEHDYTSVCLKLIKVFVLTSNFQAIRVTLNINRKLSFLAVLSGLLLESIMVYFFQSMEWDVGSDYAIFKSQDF
Method: (§1) Lipid overlays were blocked in TBST-BSA (100 mM Tris–HCl buffer, pH 7.5, 150 mM NaCl, 0.5% Tween 20, 3% bovine serum albumin) for 1 h and subsequently washed eight separate times with TBST for 2 min each. Overlays were incubated with 0.5 μg/ml GST-tagged or 6XHIS-tagged proteins in 3% TBST-BSA buffer containing 0.1% Triton X-100, for 1 h at room temperature and washed as above. Overlays were incubated with either anti-GST or anti-6XHIS monoclonal antibodies at a 1:1000 dilution in TBST-BSA for 1 h at room temperature followed by eight washes in TBST. Overlays were visualized using Immobilon Western Chemiluminescent horseradish peroxidase substrate and protein–lipid interaction was detected using a GE ImageQuant LAS 3000 imager.

GST-ARV1-N98 = molecular target: T2, GST-ARV1-N98 (Homo sapiens, UniProt Q9H2C2); assay: Lipid overlay far western; type: binding
T2 construct: Expresses amino-terminal 98 amino acids of ARV1; made in house; host or cells: E. coli BL21 (pGEX-4T1)
T2 sequence (Q9H2C2 1-98): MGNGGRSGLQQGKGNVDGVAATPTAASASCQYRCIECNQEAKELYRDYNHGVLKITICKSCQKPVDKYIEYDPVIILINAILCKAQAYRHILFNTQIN
Method: as §1

[2] = molecular target: T1, GST-ARV1 (full-length ARV1); assay: Protein-lipid liposome binding assay (ultracentrifugation, Western blot)
Method: (§2) Lyophilized lipids were reconstituted in chloroform at 10 mg/ml and stored in glass tubes with Teflon tops at −20 °C until use. One milliliter of 10 mg/ml stock was dried under a stream of nitrogen in a glass tube until a lipid cake/film was formed. The lipid cake was then rehydrated in BLT rehydration buffer (5 mM Tris/HCl, pH 7.4, containing 150 mM NaCl) to a concentration of 1 mg/ml. Lipid suspensions were subjected to three freeze/thaw cycles using a dry ice ethanol/[…] water bath to encapsulate the buffer and improve liposome formation. The suspension and lipid extruder were equilibrated to temperature for 10 min and liposomes were extruded using […] polycarbonate membranes (Avestin). Liposomes were made by mixing stock lipid PL (1 mg/ml) with PC (10 mg/ml).
(§3) Cholesterol composition liposomes were rehydrated with cholesterol rehydration buffer (10 mM Hepes, pH 7.4, containing 150 mM KCl).
(§4) Liposomes were serial diluted in floatation buffer (100 mM NaCl, 2 mM EDTA, pH 5.5) to a final concentration of 0.1 mg/ml. Nine hundred microliters of liposome solution was placed in clear ultracentrifuge tubes and mixed with 100 μl of 0.01 μg/ml of protein. The liposome/protein solution was incubated at room temperature for 1 h with occasional shaking. An initial 100 μl of liposome/protein solution (liposomes) was removed and the remaining 900 μl was centrifuged at 50,000g for 20 min at 4 °C. The pellet was resuspended in 800 μl of fresh floatation buffer, centrifuged as above, and 800 μl of supernatant was removed (wash 1). This was repeated a second time and again 800 μl of supernatant was removed (wash 2). The final pellet was resuspended in 100 μl of floatation buffer plus SDS treatment buffer (pellet). Thirty microliters of each fraction was run on a 15% SDS-PAGE gel and probed with an anti-GST monoclonal antibody at a 1:1500 dilution.

[3] = molecular target: T3, GST-ARV1-N98 (N-terminal 98 amino acids, AHD) (Homo sapiens, UniProt Q9H2C2); assay: as above
T3 construct: Expresses amino-terminal 98 amino acids of ARV1; made in house; host or cells: E. coli BL21 (pGEX-4T1)
T3 sequence (Q9H2C2 1-98): T2 sequence (Q9H2C2 1-98)
Method: as §2, §3, §4

GST-Annexin A2 [4] = molecular target: T4, GST-Annexin A2 (Homo sapiens, UniProt P07355); assay: Protein-lipid liposome binding assay (positive control protein); conditions: protein detected in final pellet
T4 sequence (P07355 whole entry): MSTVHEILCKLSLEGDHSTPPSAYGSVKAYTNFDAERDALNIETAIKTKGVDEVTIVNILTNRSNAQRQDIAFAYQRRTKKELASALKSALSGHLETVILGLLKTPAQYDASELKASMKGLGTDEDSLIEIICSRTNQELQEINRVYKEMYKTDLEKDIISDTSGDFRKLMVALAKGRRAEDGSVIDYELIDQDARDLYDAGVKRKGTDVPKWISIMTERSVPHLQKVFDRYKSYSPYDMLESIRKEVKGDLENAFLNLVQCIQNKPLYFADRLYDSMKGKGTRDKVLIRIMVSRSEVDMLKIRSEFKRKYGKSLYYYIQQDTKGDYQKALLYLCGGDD
Method: as §2, §4

6XHIS-ARV1-N98 = molecular target: T5, 6XHIS-ARV1-N98 (Homo sapiens, UniProt Q9H2C2); assay: HTRF phospholipid lipid-binding assay; conditions: biotinylated lipid (Bio-PL) titrated, 0.75 μM protein; lipid labels mean the biotinylated lipids
T5 construct: made in house; host or cells: E. coli BL21
T5 sequence (Q9H2C2 1-98): T2 sequence (Q9H2C2 1-98)
Excerpt: An HTRF assay was developed for 6XHIS-ARV1-N98-lipid binding. HTRF measures analyte interactions through fluorescence resonance energy transfer technology and time-resolved measurements ([53]). The interaction between two molecules can be quantified through binding each individual molecule involved with a fluorescent label and then analyzing the transfer of energy between the initial donor fluorophore and the secondary acceptor fluorophore. Following excitation of the first fluorophore, transfer of energy can only occur if the molecules bound with the fluorescent tags are within proximity to each other.
Assays were plated in 384-well flat bottom microplates (Greiner Bio, catalog #784075-25). Proteins were diluted using binding buffer (20 mM Hepes buffer, pH 7.2, containing 0.1% BSA, and 0.01% Tween20) to a stock concentration of 0.75 μM, and biotinylated phospholipids were dispensed, dried under nitrogen gas, and resuspended in binding buffer to a stock concentration of 50 μM. The lipid stock solution was diluted by 1:2 for a series of 12 serial dilutions. For the assay, in sequential order, 6 μl of binding buffer was loaded into the plate in triplicate for each dilution of phospholipid. To this, 2 μl of 0.75 μM 6XHIS-ARV1-N98 was added, followed by 2 μl of biotinylated phospholipid. Immediately following each addition loaded into the plate, the plate was centrifuged for 1 min at 1000 rpm to bring the contents to the bottom of the well. Next, detection antibodies were mixed with detection buffer (20 mM Hepes buffer, pH 8.5, containing 0.01% BSA and 200 mM KF). […] Plates were read on a PerkinElmer EnVision Xcite Multilabel plate reader.
Curves were logarithmically transformed and normalized to a common scale before being fit with a nonlinear regression of the agonist against the normalized response. […] For phospholipid competition analysis, IC50; M values were determined using nonlinear regression of the inhibitor against normalized response.

GST-Annexin A2 [5] = molecular target: T4, GST-Annexin A2; assay: Lipid overlay far western (positive control protein); type: binding
Method: as §1

6XHIS-ARV1-N98 K67A = molecular target: T6, 6XHIS-ARV1-N98 K67A (Homo sapiens, UniProt Q9H2C2, K67A); assay: Lipid overlay far western, site-directed mutant; type: binding; conditions: compared to the ARV1-N98 protein
T6 construct: Expressing amino-terminal 98 amino acids of ARV1; made in house; host or cells: E. coli BL21 (pET-28a(+))
T6 sequence (Q9H2C2 1-98 K67A): T2 sequence (Q9H2C2 1-98) with K67A
Method: as §1

6XHIS-ARV1-N98 K84A = molecular target: T7, 6XHIS-ARV1-N98 K84A (Homo sapiens, UniProt Q9H2C2, K84A); assay: Lipid overlay far western, site-directed mutant; type: binding; conditions: compared to the ARV1-N98 protein
T7 construct: Expressing amino-terminal 98 amino acids of ARV1; made in house; host or cells: E. coli BL21 (pET-28a(+))
T7 sequence (Q9H2C2 1-98 K84A): T2 sequence (Q9H2C2 1-98) with K84A
Method: as §1

6XHIS-ARV1-N98 C34/C37A = molecular target: T8, 6XHIS-ARV1-N98 C34/C37A (Homo sapiens, UniProt Q9H2C2, C34A/C37A); assay: Lipid overlay far western, site-directed mutant; type: binding; conditions: compared to the ARV1-N98 protein
T8 construct: Expressing amino-terminal 98 amino acids of ARV1; made in house; host or cells: E. coli BL21 (pET-28a(+))
T8 sequence (Q9H2C2 1-98 C34A/C37A): T2 sequence (Q9H2C2 1-98) with C34A, C37A
Method: as §1

GST-ARV1-N50 = molecular target: T9, GST-ARV1-N50 (Homo sapiens, UniProt Q9H2C2); assay: Lipid overlay far western, truncation; type: binding; conditions: compared to ARV1-N98 / ARV1-N70
T9 construct: Expresses amino-terminal 50 amino acids of ARV1; made in house; host or cells: E. coli BL21 (pGEX-4T1)
T9 sequence (Q9H2C2 1-50): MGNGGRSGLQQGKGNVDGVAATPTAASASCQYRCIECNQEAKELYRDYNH
Method: as §1

GST-ARV1-N70 = molecular target: T10, GST-ARV1-N70 (Homo sapiens, UniProt Q9H2C2); assay: Lipid overlay far western, truncation; type: binding; conditions: compared to ARV1-N98
T10 construct: Expresses amino-terminal 70 amino acids of ARV1; made in house; host or cells: E. coli BL21 (pGEX-4T1)
T10 sequence (Q9H2C2 1-70): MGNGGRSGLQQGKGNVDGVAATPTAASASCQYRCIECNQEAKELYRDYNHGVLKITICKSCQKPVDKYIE
Method: as §1

[6] = lipid-embedded membrane strips, incl. sphingolipid strip
[7] = protein detected in final pellet
[8] = PIP lipid membrane strip, 100pmol-1.56pmol per spot
[9] = liposomes containing 10% and 20% cholesterol
[10] = liposomes containing 30 to 50% cholesterol

Compound: phosphatidylinositol [PI, reference compound]
- binding to PC:PL liposomes [2, 7]: not
- binding to PC:PL liposomes [3, 7]: not
- binding to PC:PL liposomes (GST-Annexin A2 [4]): not
- EC50 (6XHIS-ARV1-N98): 12 µM

Compound: PI(3,4,5)P3
- lipid-protein interaction (GST-Annexin A2 [5]; [6]): interacted
- change of lipid-protein interaction (6XHIS-ARV1-N98 K67A): increased interactions
- change of lipid-protein interaction (6XHIS-ARV1-N98 K84A): increased interactions

Compound: CCCCCC(=O)O[C@H](COC(=O)CCCCCNC(=O)CCCC[C@@H]1SC[C@@H]2NC(=O)N[C@@H]21)COP(=O)(O)O[C@@H]1[C@H](O)[C@H](O)[C@@H](OP(=O)(O)O)[C@H](OP(=O)(O)O)[C@H]1O [PI(4,5)P2, reference compound]
- lipid-protein interaction (GST-Annexin A2 [5]; [6]): interacted
- change of lipid-protein interaction (6XHIS-ARV1-N98 C34/C37A): enhanced interactions
- change of lipid-protein interaction (6XHIS-ARV1-N98 K67A): increased interactions
- change of lipid-protein interaction (6XHIS-ARV1-N98 K84A): increased interactions

Compound: CCCCCC(=O)O[C@H](COC(=O)CCCCCNC(=O)CCCC[C@@H]1SC[C@@H]2NC(=O)N[C@@H]21)COP(=O)(O)O[C@H]1[C@H](O)[C@@H](OP(=O)(O)O)[C@H](O)[C@@H](O)[C@H]1O [PI(5)P, reference compound]
- lipid-protein interaction [1, 8]: interacted
- lipid-protein interaction (GST-ARV1-N98; [8]): interacted
- lipid-protein interaction (GST-Annexin A2 [5]; [8]): strongest interactions
- change of lipid-protein interaction (GST-ARV1-N50): eliminated
- change of lipid-protein interaction (GST-ARV1-N70): reduced interactions

Compound: CC(C)CCC[C@@H](C)[C@H]1CC[C@H]2[C@@H]3CC=C4C[C@@H](O)CC[C@]4(C)[C@H]3CC[C@]12C [cholesterol]
- binding to PC:Chol liposomes [2, 9]: bound
- binding to PC:Chol liposomes [2, 10]: neither ARV1 nor ARV1-N98 associated
- binding to PC:Chol liposomes [3, 9]: bound
- binding to PC:Chol liposomes [3, 10]: neither ARV1 nor ARV1-N98 associated
- lipid-protein interaction [1, 6]: not seen
- lipid-protein interaction (GST-ARV1-N98; [6]): not seen

Compound: ceramide
- lipid-protein interaction [1, 6]: not
- lipid-protein interaction (GST-ARV1-N98; [6]): not

Compound: CCCCCC(=O)O[C@H](COC(=O)CCCCCNC(=O)CCCC[C@@H]1SC[C@@H]2NC(=O)N[C@@H]21)COP(=O)(O)O[C@@H]1[C@H](O)[C@H](OP(=O)(O)O)[C@@H](O)[C@H](O)[C@H]1O [reference compound]
- lipid-protein interaction [1, 8]: interacted
- lipid-protein interaction (GST-ARV1-N98; [8]): interacted
- lipid-protein interaction (GST-Annexin A2 [5]; [8]): strongest interactions
- change of lipid-protein interaction (GST-ARV1-N50): enhanced
- change of lipid-protein interaction (GST-ARV1-N70): reduced interactions

Second part, the compound after the results:

- lipid-protein interaction [1, 6]: not
- lipid-protein interaction (GST-ARV1-N98; [6]): not
Compound: CCCCCCCCCCCCC/C=C/[C@@H](O)[C@@H](N)CO [sphingosine]

- lipid-protein interaction [1, 6]: not seen
- lipid-protein interaction (GST-ARV1-N98; [6]): not seen
Compound: lyso-phosphatidylcholine

- lipid-protein interaction [1, 6]: not
- lipid-protein interaction (GST-ARV1-N98; [6]): not
Compound: CCCCCCCCCCCCC/C=C/[C@@H](O)[C@@H](N)COP(=O)(O)O [sphingosine-1-phosphate]

- lipid-protein interaction [1, 6]: not
- lipid-protein interaction (GST-ARV1-N98; [6]): not
Compound: CCCCCCCCCCCCCC[C@@H](O)[C@@H](O)[C@@H](N)CO [phytosphingosine]

- lipid-protein interaction [1, 6]: not seen
- lipid-protein interaction (GST-ARV1-N98; [6]): not seen
Compound: CCCCCCCC/C=C\CCCCCCCC(=O)OC[C@@H](O)COP(=O)(O)O [lyso-phosphatidic acid]
